{"source": "patent US20230241188A1", "about": "(priority 2020, published 2023)", "tested_on": "spike mutant (ΔS) SARS-CoV-2 strain (EPI_ISL_578177)", "assay_type": "cell-based"}
{"smiles": "CC(=O)N[C@@H](CS)C(=O)O", "note": "[Acetylcysteine, acetylcysteine]", "values": [{"measurement": "viral inhibition (CPE, optical and Neutral Red cell staining)", "value": "no viral inhibition"}]}
